According to patent US7718652B2, “Substituted benzothiadiazinedioxide derivatives and methods of their use” (Wyeth LLC, priority 2006, dated 2010):
Counter-ions that a name gives are not always drawn.

Target: T1, human hNET (Homo sapiens, UniProt P23975)
T1 construct: expressed in transfected cells; host or cells: MDCK-Net6 (MDCK cells stably transfected)
Experiment: Functional Norepinephrine (NE) Uptake Assay in MDCK-Net6 cells
Format: cell-based
Conditions: MDCK-Net6 cells stably transfected with human hNET; 3H norepinephrine 16 nM
Experimental: MDCK-Net6 cells, stably transfected with human hNET (Pacholczyk, T., R. D. Blakely, and S. G. Amara, Nature, 1991, 350(6316): p. 350-4) were cultured in growth medium containing high glucose DMEM (Gibco, Cat. No. 11995), 10% FBS (dialyzed, heat-inactivated, US Bio-Technologies, Lot FBD1129HI) and 500 μg/ml G418 (Gibco, Cat. No. 10131). Cells were plated at 300,000 T75 flask and cells were split twice weekly.
Functional Norepinephrine (NE) Uptake Assay
On day 1, cells were plated at 3,000 cells/well in growth medium and maintained in a cell incubator (37° C., 5% CO2). On day 2, growth medium was replaced with 200 μl of assay buffer (25 mM HEPES; 120 mM NaCl; 5 mM KCl; 2.5 mM CaCl2; 1.2 mM MgSO4; 2 mg/ml glucose (pH 7.4, 37° C.)) containing 0.2 mg/ml ascorbic acid and 1 μM pargyline. For screening, 25 μl of compound in 4% […] was added directly to each well and the plate is incubated for 5 minutes at 37° C.
To initiate the norepinephrine reuptake, 16 nM (final concentration) of ^3H norepinephrine (specific activity; 40-80 Ci/mmol) in assay buffer was delivered in 25 μl aliquots to each well, and the plates were incubated for 5 minutes at 37° C. The reaction was aspirated from the plate and the cells washed with 250 μl of 50 mM Tris Buffer (4° C.). The plates were left to dry for 1 hour. The cells were lysed using 0.25 M NaOH solution then placed on a shake table and vigorously shaken for 10 minutes. After cell lysis, 100 μl of Microscint 20 (PerkinElmer; #87-051101) were added to the plates and the plates were sealed with film tape and replaced on the shake table for a minimum of 10 minutes. The plates were counted in a TopCount counter (PerkinElmer).
For screening single point determinations, each compound plate contains at least 3 control wells (maximum NE reuptake determinant) and 3 non-specific wells determined by adding 20 μM of desipramine (minimum NE reuptake determinant). Determination of active compounds are calculated using a Microsoft Excel spread sheet applying the following formula: % inhibition=[1−((mean cpm test compound wells−mean cpm non-specific wells)/(mean cpm control wells−mean cpm non-specific wells))]×100
For IC50 determination, raw cpm values were generated in a data file from the TopCount counter. The data was organized in Microsoft Excel and transferred into PRIZM graphing and statistical program, which calculates the estimated IC50 value. Calculation of IC50 values were made using non-linear regression analysis with a sigmoidal dose response with variable slope. The statistical program used wells containing ^3H norepinephrine only as the maximal NE reuptake determinant and wells containing ^3H norepinephrine plus 20 μM desipramine as the minimal NE reuptake determinant (non-specific determinant). Estimation of the IC50 value was completed on a log scale and the line was fit between the maximal and minimal NE reuptake values.

T1 sequence (P23975 whole entry): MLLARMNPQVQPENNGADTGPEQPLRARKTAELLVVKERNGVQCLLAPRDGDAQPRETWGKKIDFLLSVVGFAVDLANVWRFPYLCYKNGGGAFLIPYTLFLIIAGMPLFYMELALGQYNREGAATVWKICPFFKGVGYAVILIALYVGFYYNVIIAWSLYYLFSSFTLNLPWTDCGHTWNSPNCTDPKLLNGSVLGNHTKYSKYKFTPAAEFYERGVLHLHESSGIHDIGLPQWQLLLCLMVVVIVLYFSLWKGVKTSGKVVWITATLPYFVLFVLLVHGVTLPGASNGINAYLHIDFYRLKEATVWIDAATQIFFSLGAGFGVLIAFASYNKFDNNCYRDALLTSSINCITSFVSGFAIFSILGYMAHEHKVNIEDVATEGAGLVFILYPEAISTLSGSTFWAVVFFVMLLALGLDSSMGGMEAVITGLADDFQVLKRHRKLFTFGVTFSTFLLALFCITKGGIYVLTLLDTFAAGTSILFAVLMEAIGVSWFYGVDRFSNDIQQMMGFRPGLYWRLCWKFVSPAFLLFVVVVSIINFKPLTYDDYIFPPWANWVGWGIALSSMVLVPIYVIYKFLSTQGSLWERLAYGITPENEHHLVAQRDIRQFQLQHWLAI

SMILES | IC50
CNCCCN1Cc2ccccc2N(c2ccccc2)S1(=O)=O [Example 1, 3-(2,2-dioxido-1-phenyl-1,4-dihydro-3H-2,1,3-benzothiadiazin-3-yl)-N-methylpropan-1-amine hydrochloride] | 129 nM
CNCCCN1Cc2ccccc2N(c2cccc(F)c2)S1(=O)=O [Example 2, 3-[1-(3-fluorophenyl)-2,2-dioxido-1,4-dihydro-3H-2,1,3-benzothiadiazin-3-yl]-N-methylpropan-1-amine hydrochloride] | 628 nM
CNCCCN1Cc2ccccc2N(c2cccc(C)c2)S1(=O)=O [Example 3, N-methyl-3-[1-(3-methylphenyl)-2,2-dioxido-1,4-dihydro-3H-2,1,3-benzothiadiazin-3-yl]propan-1-amine hydrochloride] | 1030 nM
CNCCCN1Cc2ccccc2N(c2cccc(OC)c2)S1(=O)=O [Example 4, 3-[1-(3-methoxyphenyl)-2,2-dioxido-1,4-dihydro-3H-2,1,3-benzothiadiazin-3-yl]-N-methylpropan-1-amine hydrochloride] | 792 nM
CNCCCN1Cc2ccccc2N(c2ccc(Cl)cc2)S1(=O)=O [Example 5, 3-[1-(4-chlorophenyl)-2,2-dioxido-1,4-dihydro-3H-2,1,3-benzothiadiazin-3-yl]-N-methylpropan-1-amine hydrochloride] | 908 nM
CNCCCN1Cc2ccccc2N(c2ccc(F)c(Cl)c2)S1(=O)=O [Example 6, 3-[1-(3-chloro-4-fluorophenyl)-2,2-dioxido-1,4-dihydro-3H-2,1,3-benzothiadiazin-3-yl]-N-methylpropan-1-amine hydrochloride] | 1500 nM
CNCCCN1Cc2ccccc2N(c2ccc(F)cc2)S1(=O)=O [Example 7, 3-[1-(4-fluorophenyl)-2,2-dioxido-1,4-dihydro-3H-2,1,3-benzothiadiazin-3-yl]-N-methylpropan-1-amine hydrochloride] | 492 nM
CNCCCN1Cc2ccccc2N(c2ccc(C)cc2)S1(=O)=O [Example 8, N-methyl-3-[1-(4-methylphenyl)-2,2-dioxido-1,4-dihydro-3H-2,1,3-benzothiadiazin-3-yl]propan-1-amine hydrochloride] | 135 nM
CNCCCN1Cc2ccccc2N(c2ccc(OC)cc2)S1(=O)=O [Example 9, 3-[1-(4-methoxyphenyl)-2,2-dioxido-1,4-dihydro-3H-2,1,3-benzothiadiazin-3-yl]-N-methylpropan-1-amine hydrochloride] | 3550 nM
CNCCCN1Cc2ccccc2N(c2ccc(F)c(F)c2)S1(=O)=O [Example 10, 3-[1-(3,4-difluorophenyl)-2,2-dioxido-1,4-dihydro-3H-2,1,3-benzothiadiazin-3-yl]-N-methylpropan-1-amine hydrochloride] | 973 nM
CNCCN1Cc2ccccc2N(c2ccccc2F)S1(=O)=O [Example 11, 2-[1-(2-fluorophenyl)-2,2-dioxido-1,4-dihydro-3H-2,1,3-benzothiadiazin-3-yl]-N-methylethanamine] | 200 nM
O=S1(=O)N(CCNC2CC2)Cc2ccccc2N1c1ccccc1F [Example 12, N-{2-[1-(2-fluorophenyl)-2,2-dioxido-1,4-dihydro-3H-2,1,3-benzothiadiazin-3-yl]ethyl}cyclopropanamine] | 2380 nM
CNCCCN1Cc2ccccc2N(c2ccccc2F)S1(=O)=O [Example 13, 3-[1-(2-fluorophenyl)-2,2-dioxido-1,4-dihydro-3H-2,1,3-benzothiadiazin-3-yl]-N-methylpropan-1-amine] | 29 nM
O=S1(=O)N(CCCNC2CC2)Cc2ccccc2N1c1ccccc1F [Example 14, N-{3-[1-(2-fluorophenyl)-2,2-dioxido-1,4-dihydro-3H-2,1,3-benzothiadiazin-3-yl]propyl}cyclopropanamine] | 956 nM
CNCCCCN1Cc2ccccc2N(c2ccccc2F)S1(=O)=O [Example 15, 4-[1-(2-fluorophenyl)-2,2-dioxido-1,4-dihydro-3H-2,1,3-benzothiadiazin-3-yl]-N-methylbutan-1-amine] | 38 nM
O=S1(=O)N(CCCCNC2CC2)Cc2ccccc2N1c1ccccc1F [Example 16, N-{4-[1-(2-fluorophenyl)-2,2-dioxido-1,4-dihydro-3H-2,1,3-benzothiadiazin-3-yl]butyl}cyclopropanamine] | 139 nM
CNCCN1Cc2cc(F)ccc2N(c2ccccc2F)S1(=O)=O [Example 17, 2-[6-fluoro-1-(2-fluorophenyl)-2,2-dioxido-1,4-dihydro-3H-2,1,3-benzothiadiazin-3-yl]-N-methylethanamine] | 1410 nM
O=S1(=O)N(CCNC2CC2)Cc2cc(F)ccc2N1c1ccccc1F [Example 18, N-{2-[6-fluoro-1-(2-fluorophenyl)-2,2-dioxido-1,4-dihydro-3H-2,1,3-benzothiadiazin-3-yl]ethyl}cyclopropanamine] | 2870 nM
CNCCCN1Cc2cc(F)ccc2N(c2ccccc2F)S1(=O)=O [Example 19, 3-[6-fluoro-1-(2-fluorophenyl)-2,2-dioxido-1,4-dihydro-3H-2,1,3-benzothiadiazin-3-yl]-N-methylpropan-1-amine] | 119 nM
O=S1(=O)N(CCCNC2CC2)Cc2cc(F)ccc2N1c1ccccc1F [Example 20, N-{3-[6-fluoro-1-(2-fluorophenyl)-2,2-dioxido-1,4-dihydro-3H-2,1,3-benzothiadiazin-3-yl]propyl}cyclopropanamine] | 1750 nM
CNCCCCN1Cc2cc(F)ccc2N(c2ccccc2F)S1(=O)=O [Example 21, 4-[6-fluoro-1-(2-fluorophenyl)-2,2-dioxido-1,4-dihydro-3H-2,1,3-benzothiadiazin-3-yl]-N-methylbutan-1-amine] | 30 nM
O=S1(=O)N(CCCCNC2CC2)Cc2cc(F)ccc2N1c1ccccc1F [Example 22, N-{4-[6-fluoro-1-(2-fluorophenyl)-2,2-dioxido-1,4-dihydro-3H-2,1,3-benzothiadiazin-3-yl]butyl}cyclopropanamine] | 177 nM
CNC[C@@H](O)CCN1Cc2cc(F)ccc2N(c2ccccc2F)S1(=O)=O [Example 23, (2S)-4-[6-fluoro-1-(2-fluorophenyl)-2,2-dioxido-1,4-dihydro-3H-2,1,3-benzothiadiazin-3-yl]-1-(methylamino)butan-2-ol] | 81 nM
CNC[C@@H](O)CCN1Cc2ccccc2N(c2ccccc2F)S1(=O)=O [Example 24, (2S)-4-[1-(2-fluorophenyl)-2,2-dioxido-1,4-dihydro-3H-2,1,3-benzothiadiazin-3-yl]-1-(methylamino)butan-2-ol] | 95 nM

Same assay, conditions: at 10 uM; MDCK-Net6 cells; printed in the IC50 column where 50% inhibition was not exceeded; read-out: hNET Uptake, % inhibition at highest concentration tested

inhibition at 10 µM | SMILES
47% | CNCCCN1c2ccccc2CN(c2ccccc2F)S1(=O)=O [Example 25, 3-[3-(2-fluorophenyl)-2,2-dioxido-3,4-dihydro-1H-2,1,3-benzothiadiazin-1-yl]-N-methylpropan-1-amine]
36% | CNCCN1c2ccccc2CN(c2ccccc2F)S1(=O)=O [Example 26, 2-[3-(2-fluorophenyl)-2,2-dioxido-3,4-dihydro-1H-2,1,3-benzothiadiazin-1-yl]-N-methylethanamine]
